Counter-ions that a name gives are not always drawn. Like-named read-outs stand apart in the source and are kept apart here. Starred links: 1 amine or outer side, 2 acyl side, 3 side chain; linkers in the order of their positions; H or OH if unused. Positions of bridges follow the written chain, without caps; N, C: chain ends. Non-standard residues stand in square brackets, D forms with d. Residues, ends and D or L forms follow the SMILES beside them. *: point of attachment. Me3N+CH2CH2(OCH2CH2)4CO = C[N+](C)(C)CCOCCOCCOCCOCCC(=O)*; Me3N+(CH2)2O(CH2)2O(CH2)2CO = C[N+](C)(C)CCOCCOCCC(=O)*; CH2CH2OCH2CH2OCH2CH2NMe3+ = C[N+](C)(C)CCOCCOCC*; Trp(7-Me) = Cc1cccc2c(C[C@H](N)C(=O)O)c[nH]c12; X1 = CN(CC[C@H](N[*:1])C(=O)[*:2])[*:3]; 2Nal = N[C@@H](Cc1ccc2ccccc2c1)C(=O)O; AEF = NCCOc1ccc(C[C@H](N)C(=O)O)cc1; 3Pal = N[C@@H](Cc1cccnc1)C(=O)O; Lys(Me) = CNCCCC[C@H](N)C(=O)O; Pen = CC(C)(S)[C@H](N)C(=O)O; Thp = NC1(C(=O)O)CCOCC1; X3 = C[N+](C)(C)CCCCC*; Tfa = O=C(C(F)(F)F)*; Sar = CNCC(=O)O
Columns and labels:
IL-23R = molecular target: T1, IL-23R (Homo sapiens, UniProt Q5VWK5); test: IL23R Reporter Assay; assay type: cell-based; conditions: HEK293 cells containing IL-23R, IL-12RP1 and STAT-inducible firefly luciferase reporter; 10 ng/mL IL-23 (EC90); 5 h at 37° C.; read-out: IL23R Reporter Assay
T1 construct: host or cells: HEK293
T1 sequence (Q5VWK5 24-629): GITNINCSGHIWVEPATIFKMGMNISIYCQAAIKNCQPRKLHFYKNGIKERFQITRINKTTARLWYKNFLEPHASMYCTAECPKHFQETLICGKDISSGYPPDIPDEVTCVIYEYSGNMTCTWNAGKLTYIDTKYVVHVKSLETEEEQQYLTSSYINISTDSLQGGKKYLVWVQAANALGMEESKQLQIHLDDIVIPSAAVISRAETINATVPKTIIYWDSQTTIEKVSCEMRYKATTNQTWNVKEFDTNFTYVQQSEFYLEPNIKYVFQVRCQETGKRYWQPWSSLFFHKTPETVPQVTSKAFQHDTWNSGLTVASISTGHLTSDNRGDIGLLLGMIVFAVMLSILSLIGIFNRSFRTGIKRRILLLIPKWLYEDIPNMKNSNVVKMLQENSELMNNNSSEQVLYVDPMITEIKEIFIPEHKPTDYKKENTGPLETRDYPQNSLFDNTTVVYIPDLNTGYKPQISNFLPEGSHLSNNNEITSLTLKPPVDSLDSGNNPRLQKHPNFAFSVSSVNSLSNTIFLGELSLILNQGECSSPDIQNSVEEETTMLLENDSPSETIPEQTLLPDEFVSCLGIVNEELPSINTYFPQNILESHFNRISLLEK

[1] = Exposed Polar Surface Area (EPSA); assay type: physicochemical; conditions: SFC on Chirex 3014 column; sample 1 mM DMSO stock; read-out: EPSA
In short: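 EPSA, in Å^2, is read from SFC retention time through a linear relationship established with eight calibration standards. Separation uses a Chirex 3014 stationary phase, 35 °C, 14 MPa back pressure, and a 5–60% methanol/ammonium formate modifier gradient in CO2.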

[2] = molecular target: T2, interleukin-23 (IL-23) receptor (Homo sapiens, UniProt Q5VWK5); test: PBMC pSTAT3 assay; assay type: cell-based
T2 construct: Cryopreserved peripheral blood mononuclear cells (PBMCs) from healthy donors were thawed; endogenous in cells; host or cells: cryopreserved PBMCs from healthy donors, expanded 4 days on anti-CD3 with IL-1
T2 sequence (Q5VWK5 24-629): T1 sequence (Q5VWK5 24-629)
Procedure: Cryopreserved peripheral blood mononuclear cells (PBMCs) from healthy donors were thawed and washed twice in ImmunoCult-XF T cell expansion medium (XF-TCEM) supplemented with CTL anti-aggregate wash. The cells were counted, resuspended at 2×10^5 cells per mL XF-TCEM supplemented with penicillin/streptomycin and 100 ng/mL IL-1 (BioLegend, 579404), and cultured in tissue culture flasks coated with anti-CD3 (eBioscience, 16-0037-85 or BD Pharmingen, 555329) at 37° C. in 5% CO2. On day 4 of culture, PBMCs were collected, washed twice in RPMI-1640 supplemented with 0.1% BSA (RPMI-BSA), and incubated in RPMI-BSA in upright tissue culture flasks for 4 hours at 37° C. in 5% CO2. Following this ‘starvation,’ a total of 6×10^4 cells in […] RPMI-BSA was transferred into each well of a 384-well plate pre-spotted with peptide or DMSO. The cells were incubated for 30 minutes prior to the addition of IL-23 at a final concentration of 5 ng/mL. The cells were stimulated with cytokine for 30 minutes at 37° C. in 5% CO2, transferred onto ice for 10 minutes, and lysed. Cell lysates were stored at −80° C. until phosphorylated STAT3 was measured using the phospho-STAT panel kit (Meso Scale Discovery, K15202D).

[3] = disulfide bond, 20-membered ring

IC50 (IL-23R)	EPSA [1]	IC50 [2]	Compound	ring closure, yield after HPLC ([3]; I2/MeOH, 20% MeCN/H2O, 0.56 mM)	ring closure, yield after HPLC ([3]; I2/AcOH, MeCN/H2O, […])	ring closure, yield after HPLC ([3]; I2/AcOH, MeCN/H2O, 2.05 mM)
3.2 nM	160 A^2	0.0081 nM	Cc1cccc2c(C[C@@H]3NC(=O)[C@H]([C@@H](C)O)NC(=O)[C@H](CC(N)=O)NC(=O)[C@@H](NC(=O)C(F)(F)F)C(C)(C)SSC(C)(C)[C@@H](C(=O)N[C@@H](Cc4ccc(OCCN)cc4)C(=O)N[C@@H](Cc4ccc5ccccc5c4)C(=O)NC4(C(=O)N[C@@H](CCC(=O)N(C)C)C(=O)N[C@@H](CC(N)=O)C(=O)N[C@@H](Cc5cccnc5)C(=O)N(C)CC(N)=O)CCOCC4)NC(=O)[C@H](CCC(=O)N(C)C)NC3=O)c[nH]c12 [compound 62] (Tfa-[Pen]NT[Trp(7-Me)]E(NMe2)[Pen][AEF][2Nal][Thp]E(NMe2)N[3Pal][Sar]-NH2; disulfide 1-6 (inferred))	–	–	–
5.7 nM	158 A^2	0.022 nM	Cc1cccc2c(C[C@@H]3NC(=O)[C@H]([C@@H](C)O)NC(=O)[C@H](CC(=O)N(C)C)NC(=O)[C@@H](NC(=O)CCOCCOCCOCCOCC[N+](C)(C)C)C(C)(C)SSC(C)(C)[C@@H](C(=O)N[C@@H](Cc4ccc(OCCN)cc4)C(=O)N[C@@H](Cc4ccc5ccccc5c4)C(=O)NC4(C(=O)N[C@@H](CCC(=O)O)C(=O)N[C@@H](CC(N)=O)C(=O)N[C@@H](Cc5cccnc5)C(=O)N(C)CC(=O)N(C)C)CCOCC4)NC(=O)[C@H](CCN(C)C(=O)CCOCCOCCOCCOCC[N+](C)(C)C)NC3=O)c[nH]c12 [compound 145, cPEG5aCO-Pen(3)-N(N(Me)2)-T-7MeW-Dab(NMecPEG5a)-Pen(3)-AEF-2Nal-THP-E-N-3Pya-Sar-CON(Me)2] ({Me3N+CH2CH2(OCH2CH2)4CO}-[Pen]D(NMe2)T[Trp(7-Me)][X1](Me3N+CH2CH2(OCH2CH2)4CO)[Pen][AEF][2Nal][Thp]EN[3Pal][Sar]-NMe2; disulfide 1-6)	–	–	–
2 nM	136 A^2	0.037 nM	CC(=O)N(C)CCCC[C@@H]1NC(=O)[C@H](Cc2c[nH]c3c(C)cccc23)NC(=O)[C@H]([C@@H](C)O)NC(=O)[C@H](CC(=O)N(C)C)NC(=O)[C@@H](NC(=O)CCOCCOCC[N+](C)(C)C)C(C)(C)SSC(C)(C)[C@@H](C(=O)N[C@@H](Cc2ccc(OCCOCCOCC[N+](C)(C)C)cc2)C(=O)N[C@@H](Cc2ccc3ccccc3c2)C(=O)NC2(C(=O)N[C@@H](CCCCN(C)C(C)=O)C(=O)N[C@@H](CC(N)=O)C(=O)N[C@@H](Cc3cccnc3)C(=O)N(C)CC(=O)N(C)C)CCOCC2)NC1=O [compound 181, cPEG3aCO-Pen(3)-N(N(Me)2)-T-7MeW-K(NMeAc)-Pen(3)-APEG3F-2Nal-THP-K(NMeAc)-N-3Pya-Sar-CON(Me)2] ({Me3N+(CH2)2O(CH2)2O(CH2)2CO}-[Pen]D(NMe2)T[Trp(7-Me)][Lys(Me)](Ac)[Pen]Y(CH2CH2OCH2CH2OCH2CH2NMe3+)[2Nal][Thp][Lys(Me)](Ac)N[3Pal][Sar]-NMe2; disulfide 1-6)	–	–	–
1.6 nM	158 A^2	0.0075 nM	CC(=O)NCCCC[C@@H]1NC(=O)[C@H](Cc2c[nH]c3c(C)cccc23)NC(=O)[C@H]([C@@H](C)O)NC(=O)[C@H](CC(N)=O)NC(=O)[C@@H](NC(C)=O)C(C)(C)SSC(C)(C)[C@@H](C(=O)N[C@@H](Cc2ccc(OCCCCC[N+](C)(C)C)cc2)C(=O)N[C@@H](Cc2ccc3ccccc3c2)C(=O)NC2(C(=O)N[C@@H](CCCCNC(C)=O)C(=O)N[C@@H](CC(N)=O)C(=O)N[C@@H](Cc3cccnc3)C(=O)N(C)CC(N)=O)CCOCC2)NC1=O [compound 281, MeCO-Pen(3)-N-T-7MeW-K(Ac)-Pen(3)-TMAPF-2Nal-THP-K(Ac)-N-3Pya-Sar-CONH2] (Ac-[Pen]NT[Trp(7-Me)]K(Ac)[Pen]Y(X3)[2Nal][Thp]K(Ac)N[3Pal][Sar]-NH2; disulfide 1-6 (inferred))	–	–	–
–	–	–	CF3CO-Pen(3)-N(N(Me)2)-T-7MeW-K(NMeAc)-Pen(3)-AEF-2Nal-THP-K(NMeAc)-N-3Pya-Sar-CON(Me)2	12.1%	–	–
–	–	–	MeCO-k(Me)3-Pen(3)-N(N(Me)2)-T-7MeW-K(NMeAc)-Pen(3)-AEF(N(Me)2)-2Nal-THP-E-N-3Pya-Sar-CON(Me)2	–	13.4%	–
–	–	–	cPEG5aCO-Pen(3)-N(N(Me)2)-T-7MeW-Dab(NMecPEG5a)-Pen(3)-AEF-2Nal-THP-E-N-3Pya-Sar-CON(Me)2	–	–	10%

Reference: patent US20260022143A1, “Cyclic Peptide Inhibitors of IL-23” (JANSSEN PHARMACEUTICA NV, priority 2022, published 2026)
